From PMC10023787, “Trio-pharmacophore DNA-encoded chemical library for simultaneous selection of fragments and linkers” (Nature Communications, 2023)
Like-named read-outs stand apart in the source and are kept apart here.

How the values were obtained:
Assay type in all cases: biochemical
[1] = target: T1, bovine trypsin (Bos taurus, UniProt P00760); assay: Trypsin inhibition assay (proteolytic activity on BApNA); conditions: for remaining activity at 1000 µM: Concentration 1000000 nM; for IC50: mean ± SE, three independent measurements, n.d: not detected; for improvement (of inhibitory effect): compared with 4-aminomethyl benzamidine
T1 construct: purchased Sigma-Aldrich T8003
T1 sequence (P00760 24-246): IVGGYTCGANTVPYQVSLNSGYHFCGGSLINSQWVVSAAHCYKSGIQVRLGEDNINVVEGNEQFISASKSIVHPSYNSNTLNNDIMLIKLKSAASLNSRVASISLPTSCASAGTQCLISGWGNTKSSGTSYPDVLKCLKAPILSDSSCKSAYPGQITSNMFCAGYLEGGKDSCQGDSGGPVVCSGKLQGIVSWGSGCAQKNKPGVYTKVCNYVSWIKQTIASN
Experimental: The inhibition by the benzamidine derivatives against trypsin was measured using an assay probing the enzyme proteolytic activity on the substrate Nα-Benzoyl-DL-arginine-4-nitroanilide hydrochloride (BApNA). […] 5 µl of BApNA solution (10 mM, dissolved in DMSO) were added immediately prior to the measurement. The final total volume was 100 µl per well. The measurements were performed in a Low Binding 384-well plate. The absorption was measured at 410 nm in intervals of 10 sec for 15 min at 37 °C using a Beckman Coulter’s Paradigm Detection Platform (Brea, USA). The measurements were performed in triplicate. The activity of trypsin was calculated by the hydrolysis rate of BApNA after subtraction of the background-hydrolysis rate. The curves were plotted as a function of the concentration of the inhibitor against the relative enzyme activity. Vmax was derived from the detected absorption signal for each concentration and logistic fitting was performed to obtain IC50 values using Origin 2019b (OriginLab).

[2] = target: T2, MMP-2 (Homo sapiens, UniProt P08253); assay: MMP-2 inhibition assay (fluorogenic peptide substrate); conditions: for remaining activity (%): MMP-2; for IC50: n.d: not detected
T2 construct: purchased Sino Biological 10082-HNAH
T2 sequence (P08253 110-660): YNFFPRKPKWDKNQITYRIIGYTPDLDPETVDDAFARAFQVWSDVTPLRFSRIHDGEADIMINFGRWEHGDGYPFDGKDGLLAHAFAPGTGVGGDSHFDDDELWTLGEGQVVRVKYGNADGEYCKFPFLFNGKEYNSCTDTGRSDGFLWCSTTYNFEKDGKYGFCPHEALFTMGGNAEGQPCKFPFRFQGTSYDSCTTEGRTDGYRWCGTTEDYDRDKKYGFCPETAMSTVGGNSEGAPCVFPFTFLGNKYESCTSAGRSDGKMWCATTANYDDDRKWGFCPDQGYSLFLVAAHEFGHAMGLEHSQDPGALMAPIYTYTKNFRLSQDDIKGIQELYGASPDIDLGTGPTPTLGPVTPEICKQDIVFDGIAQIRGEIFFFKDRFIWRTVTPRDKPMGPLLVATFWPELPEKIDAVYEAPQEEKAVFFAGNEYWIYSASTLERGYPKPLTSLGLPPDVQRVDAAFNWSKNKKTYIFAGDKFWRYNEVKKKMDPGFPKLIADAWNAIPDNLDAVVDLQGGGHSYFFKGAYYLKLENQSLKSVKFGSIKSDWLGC
Outline: (§1)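 Human proMMP-2 and proMMP-9 were activated with 1 mM APMA (37 °C, 2 h), then used at 6.5 nM (MMP-2) or 10 nM (MMP-9) in Tris/NaCl/CaCl2/Brij 35 buffer, pH 7.5. Enzyme was preincubated with compound 30 min at RT; 25 μM DNP-Pro-Leu-Gly-Met-Trp-Ser-Arg substrate was added and fluorescence (ex 280/em 360 nm) followed 30 min. IC50 from logistic fits of Vmax.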

[3] = target: T3, MMP-9 (Homo sapiens, UniProt P14780); assay: MMP-9 inhibition assay (fluorogenic peptide substrate); parameters: remaining enzyme activity (% of control): scale not given here; conditions: for remaining enzyme activity (% of control): MMP-9; for IC50: n.d: not detected
T3 construct: purchased Sino Biological 10327-HNAH
T3 sequence (P14780 107-707 limits assumed): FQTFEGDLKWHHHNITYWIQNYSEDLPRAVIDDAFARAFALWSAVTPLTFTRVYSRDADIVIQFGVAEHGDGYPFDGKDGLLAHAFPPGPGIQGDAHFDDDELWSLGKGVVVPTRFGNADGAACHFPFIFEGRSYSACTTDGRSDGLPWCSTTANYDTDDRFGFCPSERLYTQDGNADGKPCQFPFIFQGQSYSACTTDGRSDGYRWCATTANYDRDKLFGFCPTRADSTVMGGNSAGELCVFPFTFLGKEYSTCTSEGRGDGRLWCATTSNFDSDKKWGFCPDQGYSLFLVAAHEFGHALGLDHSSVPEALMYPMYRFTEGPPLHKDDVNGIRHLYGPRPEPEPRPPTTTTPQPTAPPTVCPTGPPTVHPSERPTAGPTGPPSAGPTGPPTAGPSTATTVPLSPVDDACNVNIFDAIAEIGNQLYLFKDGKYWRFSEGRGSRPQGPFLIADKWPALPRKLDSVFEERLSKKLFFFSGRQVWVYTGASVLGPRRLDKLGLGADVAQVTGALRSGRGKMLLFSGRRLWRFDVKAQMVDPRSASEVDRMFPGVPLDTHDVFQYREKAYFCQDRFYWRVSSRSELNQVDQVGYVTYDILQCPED
Outline: as §1

[4] = Concentration 0.1024 nM, fraction of uninhibited activity, read-out: mean (Figure 3c, dose-response, relative trypsin activity)
[5] = Concentration 0.512 nM, fraction of uninhibited activity, read-out: mean (Figure 3c, dose-response, relative trypsin activity)
[6] = Concentration 2.56 nM, fraction of uninhibited activity, read-out: mean (Figure 3c, dose-response, relative trypsin activity)
[7] = Concentration 64 nM, fraction of uninhibited activity, read-out: mean (Figure 3c, dose-response, relative trypsin activity)
[8] = Concentration 320 nM, fraction of uninhibited activity, read-out: mean (Figure 3c, dose-response, relative trypsin activity)
[9] = Concentration 1600 nM, fraction of uninhibited activity, read-out: mean (Figure 3c, dose-response, relative trypsin activity)
[10] = Concentration 8000 nM, fraction of uninhibited activity, read-out: mean (Figure 3c, dose-response, relative trypsin activity)
[11] = Concentration 40000 nM, fraction of uninhibited activity, read-out: mean (Figure 3c, dose-response, relative trypsin activity)
[12] = Concentration 200000 nM, fraction of uninhibited activity, read-out: mean (Figure 3c, dose-response, relative trypsin activity)
[13] = fraction of uninhibited activity, read-out: mean (Figure 3c, dose-response, relative trypsin activity)
[14] = Figure 5d, fragment combination joined by linker, read-out: MMP2 IC50
[15] = Figure 5d, fragment combination joined by linker, read-out: MMP9 IC50

N=C(N)c1ccc(CN)cc1 [4-Aminomethyl benzamidine, 4-aminomethyl benzamidine, reference compound]
remaining activity at 0.0001024 µM [1, 4]: 108%
remaining activity at 0.000512 µM [1, 5]: 96.5%
remaining activity at 0.00256 µM [1, 6]: 102%
remaining activity at 0.064 µM [1, 7]: 110%
remaining activity at 0.32 µM [1, 8]: 101%
remaining activity at 1.6 µM [1, 9]: 106%
remaining activity at 8 µM [1, 10]: 103%
remaining activity at 40 µM [1, 11]: 82.5%
remaining activity at 200 µM [1, 12]: 44.6%
remaining activity at 1000 µM [1, 13]: 12.9%
IC50 [1]: 147 µM

Cc1cc(=O)[nH]c(-n2nc(C)c(CCC(=O)NCCNC(=O)CSCCNC(=O)c3cncc(O)c3)c2C)n1 [693+828 Linker 24]
remaining activity (%) ([2]; concentration 0.0156 µM): 100.00
remaining activity (%) ([2]; concentration 0.08 µM): 92.98
remaining activity (%) ([2]; concentration 0.39 µM): 98.13
remaining activity (%) ([2]; concentration 1.95 µM): 86.92
remaining activity (%) ([2]; concentration 9.75 µM): 82.64
remaining activity (%) ([2]; concentration 48.76 µM): 53.90
remaining activity (%) ([2]; concentration 243.80 µM): 16.08
remaining activity (%) ([2]; concentration 1219.00 µM): 0.00
IC50 ([2]; mean ± SE, Fig. 5d unit inferred, µM, read-out: IC50): 59.9 ± 15.7 µM
remaining enzyme activity (% of control) ([3]; concentration 0.04 µM): 101.25
remaining enzyme activity (% of control) ([3]; concentration 0.21 µM): 90.43
remaining enzyme activity (% of control) ([3]; concentration 1.04 µM): 102.01
remaining enzyme activity (% of control) ([3]; concentration 5.19 µM): 89.02
remaining enzyme activity (% of control) ([3]; concentration 25.96 µM): 79.56
remaining enzyme activity (% of control) ([3]; concentration 129.80 µM): 32.87
remaining enzyme activity (% of control) ([3]; concentration 649.00 µM): 0.00
IC50 ([3]; mean ± SE, Fig. 5e prints no unit, µM, read-out: IC50): 80.5 ± 15.2 µM

Cc1cc(=O)[nH]c(-n2nc(C)c(CCC(=O)NCc3c[nH]nn3)c2C)n1 [693_787 1]
IC50 [2, 14]: 204 µM
IC50 [3, 15]: 312 µM

Cc1cc(=O)[nH]c(-n2nc(C)c(CCC(=O)NCCCCCCCCNC(=O)CCC(=O)NCc3c[nH]nn3)c2C)n1 [693_787 4]
IC50 [2, 14]: 169 µM
IC50 [3, 15]: 250 µM

Cc1cc(=O)[nH]c(-n2nc(C)c(CCC(=O)NCCOCCOCCNC(=O)CCC(=O)NCc3c[nH]nn3)c2C)n1 [693_787 10]
IC50 [2, 14]: 171 µM
IC50 [3, 15]: 230 µM

Cc1cc(=O)[nH]c(-n2nc(C)c(CCC(=O)NCCNC(=O)CC(=O)/C=C/CCCCNC(=O)CCC(=O)NCc3c[nH]nn3)c2C)n1 [693_787 12]
IC50 [2, 14]: 68.4 µM
IC50 [3, 15]: 45.6 µM

Cc1cc(=O)[nH]c(-n2nc(C)c(CCC(=O)NCCSCC(=O)NCc3c[nH]nn3)c2C)n1 [693_787 24]
IC50 [2, 14]: 149 µM
IC50 [3, 15]: 270 µM

Cc1cc(=O)[nH]c(-n2nc(C)c(CCC(=O)NCCNC(=O)CC(=O)/C=C/CCCCNC(=O)c3cnc4c(c3)nc(O)n4C)c2C)n1 [693_826 12]
IC50 [2, 14]: 210 µM
IC50 [3, 15]: 58.9 µM

Cc1cc(=O)[nH]c(-n2nc(C)c(CCC(=O)NCCSCC(=O)NCCNC(=O)c3cnc4c(c3)nc(O)n4C)c2C)n1 [693_826 24]
IC50 [2, 14]: 417 µM
IC50 [3, 15]: 358 µM

Cc1cc(=O)[nH]c(-n2nc(C)c(CCC(=O)NCCNC(=O)c3cncc(O)c3)c2C)n1 [693_828 1]
IC50 [2, 14]: 110 µM
IC50 [3, 15]: 232 µM

Cc1cc(=O)[nH]c(-n2nc(C)c(CCC(=O)NCCCCCCCCNC(=O)c3cncc(O)c3)c2C)n1 [693_828 4]
IC50 [2, 14]: 212 µM
IC50 [3, 15]: 261 µM

Cc1cc(=O)[nH]c(-n2nc(C)c(CCC(=O)NCCOCCOCCNC(=O)c3cncc(O)c3)c2C)n1 [693_828 10]
IC50 [2, 14]: 186 µM
IC50 [3, 15]: 201 µM

Cc1cc(=O)[nH]c(-n2nc(C)c(CCC(=O)NCCNC(=O)CC(=O)/C=C/CCCCNC(=O)c3cncc(O)c3)c2C)n1 [693_828 12]
IC50 [2, 14]: 10 µM
IC50 [3, 15]: 14.8 µM

Cc1cc(=O)[nH]c(-n2nc(C)c(CCC(=O)NCCNC(=O)CSCCNC(=O)c3cncc(O)c3)c2C)n1 [693_828 24]
IC50 [2, 14]: 59.9 µM
IC50 [3, 15]: 80.5 µM

S=C=Nc1ccccc1I [Compound B, 2-iodophenyl isothiocyanate, reference compound]
remaining activity at 0.0001024 µM [1, 4]: 103%
remaining activity at 0.000512 µM [1, 5]: 102%
remaining activity at 0.00256 µM [1, 6]: 94.8%
remaining activity at 0.064 µM [1, 7]: 107%
remaining activity at 0.32 µM [1, 8]: 107%
remaining activity at 1.6 µM [1, 9]: 100%
remaining activity at 8 µM [1, 10]: 108%
remaining activity at 40 µM [1, 11]: 105%
remaining activity at 200 µM [1, 12]: 114%
remaining activity at 1000 µM [1, 13]: 90.1%
inhibitory effect ([1]; in words): did not display any detectable inhibitory effect

N=C(N)c1ccc(CNC(=S)Nc2cccc(I)c2)cc1 [Compound T-0]
remaining activity at 0.0001024 µM [1, 4]: 101%
remaining activity at 0.000512 µM [1, 5]: 110%
remaining activity at 0.00256 µM [1, 6]: 107%
remaining activity at 0.064 µM [1, 7]: 110%
remaining activity at 0.32 µM [1, 8]: 102%
remaining activity at 1.6 µM [1, 9]: 97.5%
remaining activity at 8 µM [1, 10]: 74%
remaining activity at 40 µM [1, 11]: 23.7%
remaining activity at 200 µM [1, 12]: 5.61%
remaining activity at 1000 µM [1, 13]: 1.19%
improvement (of inhibitory effect) [1]: approximately 9 fold
IC50 [1]: 16.6 ± 3.1 µM

N=C(N)c1ccc(CNC(=O)CCCC(=O)NCCNC(=S)Nc2cccc(I)c2)cc1 [Compound T-1]
mean (Figure 3c, dose-response, relative trypsin activity) ([1]; Concentration 0.1024 nM, fraction of uninhibited activity): 0.9598
mean (Figure 3c, dose-response, relative trypsin activity) ([1]; Concentration 0.512 nM, fraction of uninhibited activity): 1.038
mean (Figure 3c, dose-response, relative trypsin activity) ([1]; Concentration 2.56 nM, fraction of uninhibited activity): 1.032
mean (Figure 3c, dose-response, relative trypsin activity) ([1]; Concentration 64 nM, fraction of uninhibited activity): 1.057
mean (Figure 3c, dose-response, relative trypsin activity) ([1]; Concentration 320 nM, fraction of uninhibited activity): 1.07
mean (Figure 3c, dose-response, relative trypsin activity) ([1]; Concentration 1600 nM, fraction of uninhibited activity): 0.9365
mean (Figure 3c, dose-response, relative trypsin activity) ([1]; Concentration 8000 nM, fraction of uninhibited activity): 0.7184
mean (Figure 3c, dose-response, relative trypsin activity) ([1]; Concentration 40000 nM, fraction of uninhibited activity): 0.2303
mean (Figure 3c, dose-response, relative trypsin activity) ([1]; Concentration 200000 nM, fraction of uninhibited activity): 0.05821
mean (Figure 3c, dose-response, relative trypsin activity) ([1]; Concentration 830000 nM, fraction of uninhibited activity): 0.00834
mean (Figure 3c, dose-response, relative trypsin activity) ([1]; Concentration […], fraction of uninhibited activity): 1.021

N=C(N)c1ccc(CNCc2ccc(C(=O)NCCNC(=S)Nc3cccc(I)c3)cc2)cc1 [Compound T-2]
remaining activity at 0.0001024 µM [1, 4]: 105%
remaining activity at 0.000512 µM [1, 5]: 104%
remaining activity at 0.00256 µM [1, 6]: 106%
remaining activity at 0.064 µM [1, 7]: 109%
remaining activity at 0.32 µM [1, 8]: 97.3%
remaining activity at 1.6 µM [1, 9]: 81.2%
remaining activity at 8 µM [1, 10]: 37.4%
remaining activity at 40 µM [1, 11]: 7.09%
remaining activity at 200 µM [1, 12]: 1.08%
remaining activity at 365 µM ([1]; Concentration 365000 nM, fraction of uninhibited activity, read-out: mean (Figure 3c, dose-response, relative trypsin activity)): 0.681%
improvement (of inhibitory effect) [1]: 70 fold
IC50 [1]: 5.2 ± 2.2 µM
